Legend:
galium = experiment: Test C postemergence; format: in vivo, Galium aparine; conditions: 10 days
Procedure, shortened: (§1)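 Visual injury ratings on a 0–100 scale (100 = complete control) were made against untreated controls 10 days after treatment in the greenhouse. Compounds, formulated with surfactant in non-phytotoxic solvent, were sprayed on soil preemergence or onto one- to two-leaf plants 2–10 cm tall postemergence.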

ragweed [1] = experiment: Test C postemergence; format: in vivo, Ambrosia artemisiifolia; conditions: 10 days
Procedure, shortened: as §1

corn [2] = experiment: Test C postemergence; format: in vivo, Zea mays; conditions: 10 days
Procedure, shortened: as §1

oat, wild [3] = experiment: Test C postemergence; format: in vivo, Avena fatua; conditions: 10 days
Procedure, shortened: as §1

sedge, umbrella = experiment: Test D flooded paddy test; format: in vivo, Cyperus difformis; conditions: 250 g ai/ha, applied to paddy water, visual rating after 13 to 14 days, scale 0 to 100 (0 no effect, 100 complete control)
Procedure, shortened: (§2)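 Post-flood water application at the 2-leaf stage; 3 cm flood depth kept constant; visual control rating 0–100 after 13–14 days greenhouse growth.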

corn [4] = experiment: Test C preemergence; format: in vivo, Zea mays; conditions: for Plant response rating, Corn: Preemergence; for Corn plant response rating: preemergence
Procedure, shortened: as §1

kochia [5] = experiment: Test C postemergence; format: in vivo, Bassia scoparia; conditions: 10 days
Procedure, shortened: as §1

green foxtail [6] = experiment: Test C postemergence; format: in vivo, Setaria viridis; conditions: 10 days
Procedure, shortened: as §1

wheat [7] = experiment: Test C preemergence; format: in vivo, Triticum aestivum; conditions: for Plant response rating, Wheat: Preemergence; for Wheat plant response rating: preemergence
Procedure, shortened: as §1

ragweed [8] = experiment: Test C preemergence; format: in vivo, Ambrosia artemisiifolia; conditions: for Plant response rating, Ragweed: Preemergence; for Ragweed plant response rating: preemergence
Procedure, shortened: as §1

pigweed, palmer [9] = experiment: Test C postemergence; format: in vivo, Amaranthus palmeri; conditions: 10 days
Procedure, shortened: as §1

horseweed = experiment: Test C postemergence; format: in vivo, Erigeron canadensis; conditions: 10 days
Procedure, shortened: as §1

ryegrass, Italian [10] = experiment: Test C preemergence; format: in vivo, Lolium multiflorum; conditions: for Plant response rating, Ryegrass, Italian: Preemergence; for Ryegrass, Italian plant response rating: preemergence
Procedure, shortened: as §1

barnyardgrass [11] = experiment: Test D flooded paddy test; format: in vivo, Echinochloa crus-galli; conditions: 250 g ai/ha, applied to paddy water, visual rating after 13 to 14 days, scale 0 to 100 (0 no effect, 100 complete control)
Procedure, shortened: as §2

barnyardgrass [12] = experiment: Test C preemergence; format: in vivo, Echinochloa crusgalli; conditions: for Plant response rating, Barnyardgrass: Preemergence; for Barnyardgrass plant response rating: preemergence
Procedure, shortened: as §1

barnyardgrass [13] = experiment: Test C postemergence; format: in vivo, Echinochloa crusgalli; conditions: 10 days
Procedure, shortened: as §1

pigweed, palmer [14] = experiment: Test C preemergence; format: in vivo, Amaranthus palmeri; conditions: for Plant response rating, Pigweed, Palmer: Preemergence; for Pigweed, Palmer plant response rating: preemergence
Procedure, shortened: as §1

green foxtail [15] = experiment: Test C preemergence; format: in vivo, Setaria viridis; conditions: for Plant response rating, Foxtail, Green: Preemergence; for Foxtail, Green plant response rating: preemergence
Procedure, shortened: as §1

soybean [16] = experiment: Test C postemergence; format: in vivo, Glycine max; conditions: 10 days
Procedure, shortened: as §1

oat, wild [17] = experiment: Test C preemergence; format: in vivo, Avena fatua; conditions: for Plant response rating, Oat, Wild: Preemergence; for Oat, Wild plant response rating: preemergence
Procedure, shortened: as §1

rice = experiment: Test D flooded paddy test; format: in vivo, Oryza sativa; conditions: 250 g ai/ha, applied to paddy water, visual rating after 13 to 14 days, scale 0 to 100 (0 no effect, 100 complete control)
Procedure, shortened: as §2

soybean [18] = experiment: Test C preemergence; format: in vivo, Glycine max; conditions: for Plant response rating, Soybean: Preemergence; for Soybean plant response rating: preemergence
Procedure, shortened: as §1

ducksalad = experiment: Test D flooded paddy test; format: in vivo, Heteranthera limosa; conditions: 250 g ai/ha, applied to paddy water, visual rating after 13 to 14 days, scale 0 to 100 (0 no effect, 100 complete control)
Procedure, shortened: as §2

wheat [19] = experiment: Test C postemergence; format: in vivo, Triticum aestivum; conditions: 10 days
Procedure, shortened: as §1

blackgrass [20] = experiment: Test C postemergence; format: in vivo, Alopecurus myosuroides; conditions: 10 days
Procedure, shortened: as §1

blackgrass [21] = experiment: Test C preemergence; format: in vivo, Alopecurus myosuroides; conditions: for Plant response rating, Blackgrass: Preemergence; for Blackgrass plant response rating: preemergence
Procedure, shortened: as §1

kochia [22] = experiment: Test C preemergence; format: in vivo, Bassia scoparia; conditions: for Plant response rating, Kochia: Preemergence; for Kochia plant response rating: preemergence
Procedure, shortened: as §1

ryegrass, Italian [23] = experiment: Test C postemergence; format: in vivo, Lolium multiflorum; conditions: 10 days
Procedure, shortened: as §1

[24] = 125 g ai/ha, postemergence, 0 to 100 scale, 0 no effect, 100 complete control
[25] = Postemergence, 500 g ai/ha, visual 0 to 100 scale (0 no effect, 100 complete control)
[26] = 500 g ai/ha, visual rating after 10 days, 0 to 100 scale (0 no effect, 100 complete control)
[27] = Test C, 125 g ai/ha, 0 to 100 scale (0 no effect, 100 complete control)
[28] = 500 g ai/ha, postemergence, 0 to 100 scale (0 no effect, 100 complete control)
[29] = Postemergence, 125 g ai/ha, 0 to 100 scale (0 no effect, 100 complete control)
[30] = 500 g ai/ha, 0 to 100 scale (0 no effect, 100 complete control)
[31] = 125 g ai/ha, 0 to 100 scale, 0 no effect, 100 complete control

Compound: Cc1cccc2c1O[C@@H](C)CN2C(=O)c1cccc(-n2cnc(C#N)c2)c1 [Compound 233]
- Plant response rating, Galium (galium; [24]): 50
- Plant response rating, Ragweed (ragweed [1]; [24]): 0
- Plant response rating, Ragweed (ragweed [1]; [25]): 20
- Plant response rating, Corn (corn [2]; [24]): 0
- Plant response rating, Corn (corn [2]; [25]): 20
- Plant response rating, Oat, Wild (oat, wild [3]; [24]): 0
- Plant response rating, Oat, Wild (oat, wild [3]; [25]): 20
- Plant response rating, Sedge, Umbrella (Flood) (sedge, umbrella): 0
- Plant response rating, Corn (corn [4]; [26]): 20
- Corn plant response rating (corn [4]; [27]): 0
- Plant response rating, Kochia (kochia [5]; [24]): 0
- Plant response rating, Kochia (kochia [5]; [25]): 10
- Plant response rating, Foxtail, Green (green foxtail [6]; [24]): 20
- Plant response rating, Foxtail, Green (green foxtail [6]; [25]): 20
- Plant response rating, Wheat (wheat [7]; [26]): 0
- Wheat plant response rating (wheat [7]; [27]): 0
- Plant response rating, Ragweed (ragweed [8]; [26]): 70
- Ragweed plant response rating (ragweed [8]; [27]): 0
- Plant response rating, Pigweed, Palmer (pigweed, palmer [9]; [24]): 0
- Plant response rating, Pigweed, Palmer (pigweed, palmer [9]; [25]): 10
- Plant response rating, Horseweed (horseweed; [24]): 0
- Plant response rating, Horseweed (horseweed; [25]): 0
- Plant response rating, Ryegrass, Italian (ryegrass, Italian [10]; [26]): 60
- Ryegrass, Italian plant response rating (ryegrass, Italian [10]; [27]): 10
- Plant response rating, Barnyardgrass (Flood) (barnyardgrass [11]): 0
- Plant response rating, Barnyardgrass (barnyardgrass [12]; [26]): 60
- Barnyardgrass plant response rating (barnyardgrass [12]; [27]): 0
- Plant response rating, Barnyardgrass (barnyardgrass [13]; [24]): 10
- Plant response rating, Barnyardgrass (barnyardgrass [13]; [25]): 20
- Plant response rating, Pigweed, Palmer (pigweed, palmer [14]; [26]): 0
- Pigweed, Palmer plant response rating (pigweed, palmer [14]; [27]): 0
- Plant response rating, Foxtail, Green (green foxtail [15]; [26]): 80
- Foxtail, Green plant response rating (green foxtail [15]; [27]): 0
- Plant response rating, Soybean (soybean [16]; [24]): 70
- Plant response rating, Soybean (soybean [16]; [25]): 80
- Plant response rating, Oat, Wild (oat, wild [17]; [26]): 0
- Oat, Wild plant response rating (oat, wild [17]; [27]): 0
- Plant response rating, Rice (Flood) (rice): 0
- Plant response rating, Soybean (soybean [18]; [26]): 10
- Soybean plant response rating (soybean [18]; [27]): 0
- Plant response rating, Ducksalad (Flood) (ducksalad): 0
- Plant response rating, Wheat (wheat [19]; [24]): 10
- Plant response rating, Wheat (wheat [19]; [25]): 10
- Plant response rating, Blackgrass (blackgrass [20]; [24]): 0
- Plant response rating, Blackgrass (blackgrass [20]; [25]): 40
- Plant response rating, Blackgrass (blackgrass [21]; [26]): 30
- Blackgrass plant response rating (blackgrass [21]; [27]): 10
- Plant response rating, Kochia (kochia [22]; [26]): 0
- Kochia plant response rating (kochia [22]; [27]): 0
- Plant response rating, Ryegrass, Italian (ryegrass, Italian [23]; [24]): 0
- Plant response rating, Ryegrass, Italian (ryegrass, Italian [23]; [25]): 60

Compound: CCOC[C@H]1CN(C(=O)c2cc(-n3cnc(CC)n3)ccc2C)c2cccc(Cl)c2O1 [Compound 412]
- Plant response rating, Galium (galium; [28]): 100
- Plant response rating, Galium (galium; [29]): 100
- Plant response rating, Ragweed (ragweed [1]; [29]): 90
- Plant response rating, Corn (corn [2]; [28]): 20
- Plant response rating, Corn (corn [2]; [29]): 20
- Plant response rating, Oat, Wild (oat, wild [3]; [28]): 50
- Plant response rating, Oat, Wild (oat, wild [3]; [29]): 20
- Plant response rating, Sedge, Umbrella (Flood) (sedge, umbrella): 90
- Corn plant response rating (corn [4]; [30]): 30
- Plant response rating, Corn (corn [4]; [31]): 0
- Plant response rating, Kochia (kochia [5]; [28]): 90
- Plant response rating, Kochia (kochia [5]; [29]): 80
- Plant response rating, Foxtail, Green (green foxtail [6]; [28]): 90
- Plant response rating, Foxtail, Green (green foxtail [6]; [29]): 80
- Wheat plant response rating (wheat [7]; [30]): 30
- Plant response rating, Wheat (wheat [7]; [31]): 30
- Ragweed plant response rating (ragweed [8]; [30]): 100
- Plant response rating, Ragweed (ragweed [8]; [31]): 50
- Plant response rating, Pigweed, Palmer (pigweed, palmer [9]; [28]): 90
- Plant response rating, Pigweed, Palmer (pigweed, palmer [9]; [29]): 80
- Plant response rating, Horseweed (horseweed; [28]): 30
- Plant response rating, Horseweed (horseweed; [29]): 20
- Ryegrass, Italian plant response rating (ryegrass, Italian [10]; [30]): 90
- Plant response rating, Ryegrass, Italian (ryegrass, Italian [10]; [31]): 80
- Plant response rating, Barnyardgrass (Flood) (barnyardgrass [11]): 25
- Barnyardgrass plant response rating (barnyardgrass [12]; [30]): 80
- Plant response rating, Barnyardgrass (barnyardgrass [12]; [31]): 60
- Plant response rating, Barnyardgrass (barnyardgrass [13]; [28]): 80
- Plant response rating, Barnyardgrass (barnyardgrass [13]; [29]): 40
- Pigweed, Palmer plant response rating (pigweed, palmer [14]; [30]): 100
- Plant response rating, Pigweed, Palmer (pigweed, palmer [14]; [31]): 100
- Foxtail, Green plant response rating (green foxtail [15]; [30]): 100
- Plant response rating, Foxtail, Green (green foxtail [15]; [31]): 100
- Plant response rating, Soybean (soybean [16]; [29]): 100
- Oat, Wild plant response rating (oat, wild [17]; [30]): 0
- Plant response rating, Oat, Wild (oat, wild [17]; [31]): 0
- Plant response rating, Rice (Flood) (rice): 10
- Soybean plant response rating (soybean [18]; [30]): 90
- Plant response rating, Soybean (soybean [18]; [31]): 60
- Plant response rating, Ducksalad (Flood) (ducksalad): 75
- Plant response rating, Wheat (wheat [19]; [29]): 20
- Plant response rating, Blackgrass (blackgrass [20]; [28]): 90
- Plant response rating, Blackgrass (blackgrass [20]; [29]): 60
- Blackgrass plant response rating (blackgrass [21]; [30]): 90
- Plant response rating, Blackgrass (blackgrass [21]; [31]): 50
- Kochia plant response rating (kochia [22]; [30]): 80
- Plant response rating, Kochia (kochia [22]; [31]): 30
- Plant response rating, Ryegrass, Italian (ryegrass, Italian [23]; [29]): 70

Source: patent US20260262643A1, “HERBICIDAL BENZOXAZINES” (FMC CORPORATION, priority 2022, published 2026)
